According to ChEMBL document CHEMBL6071140, “Ocotillol Derivatives Mitigate Retinal Ischemia-Reperfusion Injury by Regulating the Keap1/Nrf2/ARE Signaling Pathway” (J Med Chem, 2024):

Columns and labels:
[1] = Cytotoxicity against rat R28 cells assessed as decrease in cellular ATP content incubated for 24 hrs by CellTiter-Lumi Plus cell viability assay; assay type: toxicity, cell-based; settings: r28, 24 h
R28 = test: Antioxidant activity in rat R28 cells assessed as protection against OGD induced cytotoxicity by measuring cellular ATP level preincubated under OGD condition for 8 hrs followed by reoxygenation for 4 hrs by CellTiter-Lumi Plus cell viability assay; assay type: functional, cell-based; settings: dose 0.1-40 µM, time 12.0 hrs

Structure (SMILES) | Activity [1] | Activity (R28)
CC(C)(O)[C@H]1CC[C@@](C)([C@H]2CC[C@]3(C)[C@@H]2[C@H](O)C[C@@H]2[C@@]4(C)Cc5c(C(=O)O)noc5C(C)(C)[C@@H]4CC[C@]23C)O1 | Non-Toxic | 
CCOC(=O)c1noc2c1C[C@]1(C)[C@H]3C[C@@H](O)[C@@H]4[C@@H]([C@]5(C)CC[C@H](C(C)(C)O)O5)CC[C@@]4(C)[C@]3(C)CC[C@H]1C2(C)C | Non-Toxic | 
CC(C)(O)[C@H]1CC[C@@](C)([C@H]2CC[C@]3(C)[C@@H]2[C@H](O)C[C@@H]2[C@@]4(C)CC[C@H](OC(=O)CCC(=O)Nc5cccc(N)c5)C(C)(C)[C@@H]4CC[C@]23C)O1 | Non-Toxic | 
CC(C)(O)[C@@H]1CC[C@@](C)([C@H]2CC[C@]3(C)[C@@H]2[C@H](O)C[C@@H]2[C@@]4(C)Cc5c(C(=O)Nc6ccc(N)cc6)noc5C(C)(C)[C@@H]4CC[C@]23C)O1 | Non-Toxic | 
CC(C)(O)[C@@H]1CC[C@@](C)([C@H]2CC[C@]3(C)[C@@H]2[C@H](O)C[C@@H]2[C@@]4(C)Cc5sc(NC(=O)CCCC(=O)O)nc5C(C)(C)[C@@H]4CC[C@]23C)O1 | Non-Toxic | 
CC(C)(O)[C@@H]1CC[C@@](C)([C@H]2CC[C@]3(C)[C@@H]2[C@H](O)C[C@@H]2[C@@]4(C)CC[C@H](OC(=O)CCC(=O)Nc5ccccc5N)C(C)(C)[C@@H]4CC[C@]23C)O1 | Non-Toxic | 
CC(C)(O)[C@H]1CC[C@@](C)([C@H]2CC[C@]3(C)[C@@H]2[C@H](O)C[C@@H]2[C@@]4(C)Cc5sc(N)nc5C(C)(C)[C@@H]4CC[C@]23C)O1 | Non-Toxic | 
CC(C)(O)[C@H]1CC[C@@](C)([C@H]2CC[C@]3(C)[C@@H]2[C@H](O)C[C@@H]2[C@@]4(C)CC[C@H](OC(=O)CCC(=O)O)C(C)(C)[C@@H]4CC[C@]23C)O1 | Non-Toxic | 
CC(C)(O)[C@H]1CC[C@@](C)([C@H]2CC[C@]3(C)[C@@H]2[C@H](O)C[C@@H]2[C@@]4(C)CC[C@H](O)C(C)(C)[C@@H]4CC[C@]23C)O1 | Non-Toxic | Dose-Dependent Effect
CC(C)(O)[C@@H]1CC[C@@](C)([C@H]2CC[C@]3(C)[C@@H]2[C@H](O)C[C@@H]2[C@@]4(C)CC[C@H](OC(=O)CCC(=O)O)C(C)(C)[C@@H]4CC[C@]23C)O1 | Non-Toxic | 
CC(C)(O)[C@H]1CC[C@@](C)([C@H]2CC[C@]3(C)[C@@H]2[C@H](O)C[C@@H]2[C@@]4(C)CC[C@H](OC(=O)CCC(=O)Nc5ccccc5N)C(C)(C)[C@@H]4CC[C@]23C)O1 | Non-Toxic | 
CC(C)(O)[C@@H]1CC[C@@](C)([C@H]2CC[C@]3(C)[C@@H]2[C@H](O)C[C@@H]2[C@@]4(C)Cc5sc(NC(=O)CCCSSCCCC(=O)O)nc5C(C)(C)[C@@H]4CC[C@]23C)O1 | Non-Toxic | 
CC(C)(O)[C@@H]1CC[C@@](C)([C@H]2CC[C@]3(C)[C@@H]2[C@H](O)C[C@@H]2[C@@]4(C)Cc5sc(N)nc5C(C)(C)[C@@H]4CC[C@]23C)O1 | Non-Toxic | 
CC(C)(O)[C@@H]1CC[C@@](C)([C@H]2CC[C@]3(C)[C@@H]2[C@H](O)C[C@@H]2[C@@]4(C)CC[C@H](OC(=O)CCC(=O)Nc5cccc(N)c5)C(C)(C)[C@@H]4CC[C@]23C)O1 | Non-Toxic | 
CC(C)(O)[C@H]1CC[C@@](C)([C@H]2CC[C@]3(C)[C@@H]2[C@H](O)C[C@@H]2[C@@]4(C)Cc5sc(NC(=O)CC(=O)O)nc5C(C)(C)[C@@H]4CC[C@]23C)O1 | Non-Toxic | 
CC(C)(O)[C@H]1CC[C@@](C)([C@H]2CC[C@]3(C)[C@@H]2[C@H](O)C[C@@H]2[C@@]4(C)Cc5sc(NC(=O)c6ccccc6C(=O)O)nc5C(C)(C)[C@@H]4CC[C@]23C)O1 | Non-Toxic | 
CC(C)(O)[C@H]1CC[C@@](C)([C@H]2CC[C@]3(C)[C@@H]2[C@H](O)C[C@@H]2[C@@]4(C)CC[C@H](OC(=O)CCC(=O)NCCCN)C(C)(C)[C@@H]4CC[C@]23C)O1 | Non-Toxic | 

Structure (SMILES) | Activity [1] | Activity (R28)
CC(C)(O)[C@@H]1CC[C@@](C)([C@H]2CC[C@]3(C)[C@@H]2[C@H](O)C[C@@H]2[C@@]4(C)Cc5c(C(=O)NCCCN)noc5C(C)(C)[C@@H]4CC[C@]23C)O1 | Non-Toxic | 
CC(C)(O)[C@H]1CC[C@@](C)([C@H]2CC[C@]3(C)[C@@H]2[C@H](O)C[C@@H]2[C@@]4(C)Cc5c(C(=O)Nc6ccc(N)cc6)noc5C(C)(C)[C@@H]4CC[C@]23C)O1 | Non-Toxic | 
CC(C)(O)[C@@H]1CC[C@@](C)([C@H]2CC[C@]3(C)[C@@H]2[C@H](O)C[C@@H]2[C@@]4(C)Cc5c(C(=O)O)noc5C(C)(C)[C@@H]4CC[C@]23C)O1 | Non-Toxic | 
CC(C)(O)[C@H]1CC[C@@](C)([C@H]2CC[C@]3(C)[C@@H]2[C@H](O)C[C@@H]2[C@@]4(C)Cc5sc(NC(=O)CCCC(=O)O)nc5C(C)(C)[C@@H]4CC[C@]23C)O1 | Non-Toxic | 
CC(C)(O)[C@@H]1CC[C@@](C)([C@H]2CC[C@]3(C)[C@@H]2[C@H](O)C[C@@H]2[C@@]4(C)Cc5c(C(=O)NCCCCN)noc5C(C)(C)[C@@H]4CC[C@]23C)O1 | Non-Toxic | 
CC(C)(O)[C@@H]1CC[C@@](C)([C@H]2CC[C@]3(C)[C@@H]2[C@H](O)C[C@@H]2[C@@]4(C)CC[C@H](OC(=O)CCC(=O)NCCCN)C(C)(C)[C@@H]4CC[C@]23C)O1 | Non-Toxic | 
CC(C)(O)[C@H]1CC[C@@](C)([C@H]2CC[C@]3(C)[C@@H]2[C@H](O)C[C@@H]2[C@@]4(C)Cc5sc(NC(=O)CCCSSCCCC(=O)O)nc5C(C)(C)[C@@H]4CC[C@]23C)O1 | Non-Toxic | 
CC(C)(O)[C@@H]1CC[C@@](C)([C@H]2CC[C@]3(C)[C@@H]2[C@H](O)C[C@@H]2[C@@]4(C)Cc5sc(NC(=O)c6ccccc6C(=O)O)nc5C(C)(C)[C@@H]4CC[C@]23C)O1 | Non-Toxic | 
CC(C)(O)[C@H]1CC[C@@](C)([C@H]2CC[C@]3(C)[C@@H]2[C@H](O)C[C@@H]2[C@@]4(C)CC[C@H](OC(=O)CCC(=O)Nc5ccc(N)cc5)C(C)(C)[C@@H]4CC[C@]23C)O1 | Non-Toxic | 
CC(C)(O)[C@H]1CC[C@@](C)([C@H]2CC[C@]3(C)[C@@H]2[C@H](O)C[C@@H]2[C@@]4(C)Cc5c(C(=O)NCCCCCCN)noc5C(C)(C)[C@@H]4CC[C@]23C)O1 | Non-Toxic | 
CC(C)(O)[C@@H]1CC[C@@](C)([C@H]2CC[C@]3(C)[C@@H]2[C@H](O)C[C@@H]2[C@@]4(C)Cc5sc(NC(=O)CC(=O)O)nc5C(C)(C)[C@@H]4CC[C@]23C)O1 | Non-Toxic | 
CC(C)(O)[C@H]1CC[C@@](C)([C@H]2CC[C@]3(C)[C@@H]2[C@H](O)C[C@@H]2[C@@]4(C)Cc5c(C(=O)NCCCN)noc5C(C)(C)[C@@H]4CC[C@]23C)O1 | Non-Toxic | 
CC(C)(O)[C@@H]1CC[C@@](C)([C@H]2CC[C@]3(C)[C@@H]2[C@H](O)C[C@@H]2[C@@]4(C)CC[C@H](OC(=O)CCC(=O)Nc5ccc(N)cc5)C(C)(C)[C@@H]4CC[C@]23C)O1 | Non-Toxic | 
CC(C)(O)[C@H]1CC[C@@](C)([C@H]2CC[C@]3(C)[C@@H]2[C@H](O)C[C@@H]2[C@@]4(C)Cc5c(C(=O)NCCCCN)noc5C(C)(C)[C@@H]4CC[C@]23C)O1 | Non-Toxic | 
CC(C)(O)[C@@H]1CC[C@@](C)([C@H]2CC[C@]3(C)[C@@H]2[C@H](O)C[C@@H]2[C@@]4(C)Cc5c(C(=O)NCCCCCCN)noc5C(C)(C)[C@@H]4CC[C@]23C)O1 | Non-Toxic | 
CC(C)(O)[C@@H]1CC[C@@](C)([C@H]2CC[C@]3(C)[C@@H]2[C@H](O)C[C@@H]2[C@@]4(C)CC[C@H](O)C(C)(C)[C@@H]4CC[C@]23C)O1 | Non-Toxic | 
CCOC(=O)c1noc2c1C[C@]1(C)[C@H]3C[C@@H](O)[C@@H]4[C@@H]([C@]5(C)CC[C@@H](C(C)(C)O)O5)CC[C@@]4(C)[C@]3(C)CC[C@H]1C2(C)C | Non-Toxic | 
